Experiments:
Format in all cases: in vivo
[1] = test system: female Aedes aegypti (Orlando strain, 1952); assay: Minimum effective dosage testing, human skin (treated cloth patch); details: for Proportion to DEET: average MED relative to DEET; for Minimum Effective Dosage, Average: mean across subjects; for Minimum Effective Dosage, Subject 2 / Minimum Effective Dosage, Subject 3 / Minimum Effective Dosage, Subject 1: treated cloth patch, 1 min test, high dose 1.5 mg/cm^2
Protocol: The test mosquitoes were female Aedes aegypti (Orlando strain, 1952) from the colony maintained at United States Department of Agriculture-Agricultural Research Service-Center for Medical, Agricultural and Veterinary Entomology (USDA-ARS-CMAVE) in Gainesville, Fla. Pupae were obtained from the colony and newly emerged mosquitoes were maintained on 10% sugar water and kept in laboratory cages at an ambient temperature of 28±1° C. and RH of 35-60%. Host seeking behavior was pre-selected in nulliparous female mosquitoes aged 6-10 days, indicated by flight upwind towards a potential host, from stock cages using a hand-draw box and trapped in a collection trap.
After 500 (±10%) females were collected in the trap, they were transferred to a test cage (approximately 59,000 cm^3 with dimensions 45×37.5×35 cm) and allowed to acclimatize for 17.5 (±2.5) min before testing was initiated. Just prior to the experiment, the pieces of treated cloth are removed from the vials and stapled onto card stock tabs (5×3 cm). Each piece of the cards and the assembly were hung on a drying rack using masking tape for 3-5 min. Participants in the study used latex gloves to pull a nylon stocking over their arm. A Velcro™-sealed vinyl sleeve was then placed over the forearm. […] The purpose of the nylon stocking was to produce a barrier between the dried cloth and the skin, thereby avoiding direct contact of chemical to skin. The dried cloth assembly was affixed over the opening in the sleeve and held in place with masking tape. Participants then inserted their arm with the sleeve and patch into a screened cage that contained female Ae. Aegypti mosquitoes. Tests were conducted on each control or treated patch for 1 min. A control patch (acetone solvent only, then dried) was tested prior to the start of experiments and evaluation of the same untreated control patch after every 10 tests. If 5 landings were not received on the control patch in 30 s, then tests were discontinued for 60 min. At the conclusion of testing the control patch was tested again. If five landings were not received within 30 s, the data for the replicate was discarded. When testing a patch treated with a candidate repellent, if approximately 1% or 5 mosquito bites were received during this one minute test, this compound was considered to have failed, i.e., was not repellent at that concentration. If a treated cloth patch received 0-4 bites within a minute, then it was considered as passed, i.e., repellent at that concentration of the test compound. The median concentration patch was tested in the first round and treated patches were then tested successively at higher or lower concentrations depending upon whether the previous patch failed or passed, respectively.
The time interval between each tested patch was <90 seconds until 10 successive tests had been conducted. If appreciable, mortality had occurred during testing, the number of knocked down mosquitoes are estimated and additional female mosquitoes are added to the cage to keep the available mosquitoes at approximately 500. The estimate of the MED was the lowest concentration that passed for each candidate. Observed MED values for each candidate compound were averaged across participants and reported as a mean MED±standard error.

[2] = test system: Northern house mosquitoes (Culex pipiens); assay: Long-term spatial repellency, static air repellency chamber, filter papers air-dried 5 hours; details: air-dried 5 hours; for pest or weed control at 0.5 %: Culex pipiens
Protocol: (§1) Northern house mosquitoes (Culex pipiens), a primary carrier of West Nile virus in eastern North America, were obtained from an established colony in the Medical Entomology Laboratory in the Department of Entomology at Iowa State University of Science and Technology, Ames Iowa. Mosquito rearing was performed by established protocols that are maintained by the Medical Entomology Laboratory. Repellency bioassays were performed with adult female mosquitoes that were 5-7 days post-emergent. […] Mosquitoes, prior to testing, were held at 27° C., 80% relative humidity, and on a 16:8 hr light:dark photoperiod.
Repellency bioassays were performed using a static air repellency chamber, which has been described in various publications by the Pesticide Toxicology Laboratory at Iowa State University of Science and Technology, Ames, Iowa Briefly, a 9-cm×60-cm glass tube was used to monitor the distribution of mosquitoes at 15 min, 30 min, 60 min, 90 min, 120 min, and 150 min after introducing mosquitoes into the static air repellency chamber. Treated filter papers were treated with 1 mL of 0.5% solution in acetone of the terpenoid analogs created in the lab and were exposed to ambient air for 5 hours before they were introduced into the spatial chamber for testing. This is a slight modification of the method described in Example 2, so as to evaluate the residual repellent character of these compounds on a treated surface after 5 hours. One end of the spatial chamber contained a treated filter paper, whereas the other (untreated) end of the spatial chamber was not treated with compound. Controls contained filter papers treated with acetone, the solvent used to make the 0.5% solutions. Each end of the repellency chamber was secured with a 100-mm Petri dish using celluloid tape. After securing the petri dishes with corresponding treated or untreated filter papers to the spatial chamber, mosquitoes were anesthetized with carbon dioxide, and approximately 20 female mosquitoes were placed into each repellency chamber for one replicate. The opening of the spatial repellency chamber was secured with celluloid tape to prevent their escape. Chambers were oriented in opposite directions from the previous replicate to account for any directional effect. Four replicates were performed for data analysis for both the control and treatment groups.
Data for spatial repellency, the percentage repellency, is reported at each of the respective time points in the figures and tables mentioned below in this disclosure. The percentage spatial repellency is the examination of the distribution of mosquitoes and is calculated using the following equation: […]

[3] = test system: Northern house mosquitoes (Culex pipiens); assay: Short-term spatial repellency, static air repellency chamber; details: for pest or weed control at 0.5 %: Culex pipiens
Summary of the method: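 Adult females 5-7 days post-emergence, ~20 per chamber, exposed in a 9×60 cm glass tube to filter paper treated with compound in acetone, the other end untreated. Distribution scored at 15-150 min as % spatial repellency; acetone controls, four replicates.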

[4] = test system: Northern house mosquitoes (Culex pipiens); assay: Contact irritancy assay (percent escape from treated chamber); details: organza netting treated with 0.5% solution; 10 min; FIG. 14
Protocol: as §1
Organza were cut to approximately 11.5 cm×8 cm to wrap around the inside of the contact irritancy chamber. This piece of organza was treated with 1.5 mL of 0.5% or 0.05% solution of test compound in acetone. This organza was allowed to air-dry for 15 minutes before introducing them into the chamber. Organza sheets were draped around the inside wall of the metallic chamber and fastened to the walls of the chamber with small magnets. […] After ten minutes, the butterfly valve was once again closed and the number of mosquitoes was counted in the clear “counting” chamber. […]

[5] = 0.25 h, 1 mL of 0.5% solution in acetone, 15 min, read-out: Long-term Percentage repellency 15 min
[6] = 1.5 h, 1 mL of 0.5% solution in acetone, 90 min, read-out: Long-term Percentage repellency 90 min
[7] = 2.5 h, 1 mL of 0.5% solution in acetone, 150 min, read-out: Long-term Percentage repellency 150 min
[8] = 0.25 h, filter paper, 1 mL of 0.5% solution in acetone, air-dried 15 min, 15 min after introduction, read-out: Short-term Percentage repellency 15 min
[9] = 1.5 h, filter paper, 1 mL of 0.5% solution in acetone, air-dried 15 min, 90 min, read-out: Short-term Percentage repellency 90 min
[10] = 2.5 h, filter paper, 1 mL of 0.5% solution in acetone, air-dried 15 min, 150 min, read-out: Short-term Percentage repellency 150 min

Structure (SMILES) | Proportion to DEET [1] | Minimum Effective Dosage, Average [1] [mg/cm^2] | Minimum Effective Dosage, Subject 2 [1] [mg/cm^2] | Minimum Effective Dosage, Subject 3 [1] [mg/cm^2] | Minimum Effective Dosage, Subject 1 [1] [mg/cm^2] | further results
CC(O)COC(=O)C=Cc1ccccc1 (stereo not drawn) [2-hydroxypropyl cinnamate] | 19.737 | 0.375 | 0.375 | 0.375 | – | –
O=C(C=Cc1ccccc1)OCCCO [3-hydroxypropyl cinnamate] | 52.632 | 1.000 | 1.500 | 0.750 | 0.750 | –
CC(C)=CCC/C(C)=C/C(=O)OCC(C)O (stereo not drawn) [2-hydroxypropyl geranate] | 2.474 | 0.047 | 0.047 | 0.047 | 0.047 | –
CCN(CC)C(=O)c1cccc(C)c1 [DEET, N,N-diethyl-meta-toluaminde, reference compound] | 1.000 | 0.019 | 0.023 | 0.011 | 0.023 | Long-term percentage repellency 30 min ([2]; 0.5% solution, 30 minutes): 22.5%; Long-term Percentage repellency 15 min ([2]; 1 mL of 0.5% solution in acetone, 15 min): 32.5%±14.4; Short-term percentage repellency 30 min ([3]; 1 mL of 0.5% solution in acetone, 30 minutes): 53.3%; Short-term Percentage repellency 15 min ([3]; filter paper, 1 mL of 0.5% solution in acetone, air-dried 15 min, 15 min after introduction): 20%±15.3
CC(C)=CCC/C(C)=C/C(=O)OCCO [2-hydroxyethyl geranate] | 13.140 | 0.250 | 0.375 | 0.187 | 0.187 | –
CC(C)=CCCC(C)CCOC(=O)C1CC1 (stereo not drawn) [Compound 1035A, citronellyl cyclopropanecarboxylate] | – | – | – | – | – | Contact irritancy, percentage escape [4]: 80%; pest or weed control at 0.5 % [2, 5]: 70%; pest or weed control at 0.5 % [2, 6]: 80%; pest or weed control at 0.5 % [2, 7]: 62.5%; pest or weed control at 0.5 % [3, 8]: 22.5%; pest or weed control at 0.5 % [3, 9]: 92.5%; pest or weed control at 0.5 % [3, 10]: 90%; Short-term repellency at low concentration, in words ([3]; filter paper treated with 0.1%, FIG. 6): significant levels of repellency
CC(C)=CCC/C(C)=C/C(=O)OCCCO [3-hydroxypropyl geranate] | 6.579 | 0.125 | 0.094 | 0.094 | 0.187 | –
CC(C)=CCCC(C)CC(=O)OCCCO (stereo not drawn) [3-hydroxypropyl citronellate] | 3.702 | 0.070 | 0.094 | 0.023 | 0.094 | –
O=C(C=Cc1ccccc1)OCCO [2-hydroxyethyl cinnamate] | – | – | – | 0.094 | – | –
CC1CCC(C(C)(C)O)C(O)C1 (stereo not drawn) [p-menthane-3,8-diol, reference compound] | – | – | – | – | – | Contact irritancy, percentage escape [4]: approximately 65%; pest or weed control at 0.5 % [2, 5]: 7.5%; pest or weed control at 0.5 % [2, 6]: 5%; pest or weed control at 0.5 % [2, 7]: 5%; pest or weed control at 0.5 % [3, 8]: 12.5%; pest or weed control at 0.5 % [3, 9]: 12.5%; pest or weed control at 0.5 % [3, 10]: 20%
